In brackets after ≈: the same amount, converted by molar mass.

Format in all cases: cell-based
Assay [1] deals with HCT-116 human colon adenocarcinoma cancer cells. Briefly: anticancer activity against HCT-116 colon cancer cell line. The following applies: for growth inhibition against the cancer cell line HCT-116 human colon carcinoma: in words. As to the method: For extraction of compounds from the CNQ140 actinomycete, the following protocol was used. Pre-washed XAD-7 resin (20 g) was added to 1 liter of culture and mixed for 1 hour. The contents were collected by filtration, washed with deionized water (1 liter) and eluted with acetone (250 ml). The extraction liquid from each successive extraction step (as shown in FIG. 1) was tested for anticancer activity (IC50) against HCT-116 colon cancer cell line. […] A second extraction step using C-18 reverse phase HPLC and a solvent of 65% MeCN in water yielded four distinct compounds with activity against the colon cancer cell line. […] The chemical structures of these compounds appear below:
(§1) As shown by the data in Table 1 below the invention therapeutic compounds have both anticancer and antibiotic activity, as illustrated in tests against HCT-116 human colon adenocarcinoma cancer cells (HCT-116); methicillin resistant Staphylococcus aureus (MRSA); and vancomycin-resistant Enterococcus faecium (VREF):
Pre-washed XAD-7 resin (20 g) was added to 1 liter of culture and mixed for 1 hour. The contents were collected by filtration, washed with deionized water (1 liter) and eluted with acetone (250 ml). The extraction liquid from each successive extraction step (as shown in FIG. 1) was tested for anti-cancer activity (IC50) against HCT-116 colon cancer cell line. […] A second chromatographic purification step for fraction CNQ140-3, using C-18 reverse phase HPLC and 65% MeCN in water, yielded four distinct CNQ140 macrolide polyol-polyene compounds with activity against the colon cancer cell line: […]

Assay [2] relates to methicillin resistant Staphylococcus aureus (MRSA). The assay is described as follows: antibiotic activity (MIC) against MRSA.
Description: as §1
(§2) As shown by the data in Table 1 below the invention therapeutic compounds have both anticancer and antibiotic activity, as illustrated in tests against HCT-116 colon cancer cells (HCT-116); methicillin resistant Staphylococcus aureus (MRSA); and vancomycin-resistant Enterococcus faecium (VREF).

Assay [3] deals with vancomycin-resistant Enterococcus faecium (VREF). The assay is described as follows: antibiotic activity (MIC) against VREF.
Description: as §1, §2

For assay [4], the system named is all 60 cell lines. The assay is described as follows: National Cancer Institute's 60 cancer cell line in vitro cytotoxicity assay. From the text:
Compounds CNQ140.996a, CNQ140.996b, and CNQ140.996c were examined in the National Cancer Institute's 60 cancer cell line, in vitro, cytotoxicity assay. The following cytoxicity data were derived for the invention compounds: […]

One may read the GI50 as the concentration at which growth is held to half of that of the control. Consider `CCC(O)CC1CC(O)C/C=C/[C@@H](O)C[C@@H](O)C/C(C)=C/C=C/C=C/C=C\c2cccc(O)c2C(=O)OC(CC(C)O)CC(O)C/C=C/[C@@H](O)C[C@@H](O)C/C(C)=C/C=C/C=C/C=C\c2cccc(O)c2C(=O)O1` (stereo partly shown) [CNQ140.996c], for which, in assay [1] (Homo sapiens, HCT-116, HCT-116 cells, read-out: HCT-116 (IC50 microgm/ml)), the IC50 is 2.6 µg/mL (≈ 2.57 µM). Moreover, in assay [1], the “growth inhibition against the cancer cell line HCT-116 human colon carcinoma” value is given as “showed growth inhibition”. Moreover, the “MRSA (MIC microgm/ml)” value in assay [2] amounted to 0.25 microgm/ml. Also, the “VREF (MIC microgm/ml)” value in assay [3] was found to be 0.25 microgm/ml. Besides, in assay [4] (average over NCI 60 cell lines, read-out: Average GI50 against all 60 cell lines), the 50% growth inhibitory concentration (GI50) was found to be 5.1 nM. Further, the tissue type selectivity entry in assay [4] (most sensitive: 6 of the 8 melanoma cancer types (LOX IMVI, M14, SK-MEL-2, SK-MEL-5, UACC-257, UACC-62)) is recorded as “significant tissue type selectivity”.
Regarding `CCC(O)CC1CC(O)C/C=C/[C@@H](O)C[C@@H](O)C/C(C)=C/C=C/C=C/C=C\c2cccc(O)c2C(=O)OC(CC(C)O)CC(O)C/C=C/[C@@H](O)C[C@@H](O)C/C(C)=C/C=C/C=C/C=C\c2cccc(O)c2C(=O)O1` (stereo partly shown) [CNQ140.1010], in assay [1] (HCT-116 cells), the “HCT-116 (IC50 microgm/ml)” value is reported as 3.1 microgm/ml. Besides, the “growth inhibition against the cancer cell line HCT-116 human colon carcinoma” value in assay [1] is “showed growth inhibition”. In assay [2], the “MRSA (MIC microgm/ml)” value is recorded as 0.25 microgm/ml. Further, in assay [3], the “VREF (MIC microgm/ml)” value is on record as 0.25 microgm/ml.

The values above are taken from US7521414B2, “Polyol macrolide antitumor-antibiotics from the marine actinomycete strain CNQ140” (priority 2003, dated 2009).
